Experimental data published in ChEMBL document CHEMBL4480398, “1,2,4-Triazolo[1,5-a]pyrimidines in drug design” (Eur J Med Chem, 2019).
In brackets after ≈: the same amount, converted by molar mass.

Legend:
Format in all cases: functional
[1] = system: Mycobacterium tuberculosis; experiment: Antibacterial activity against multidrug-resistant Mycobacterium tuberculosis M22 after 9 days by inverted microscopic analysis; conditions: M22, 216 h
[2] = system: Mycobacterium tuberculosis; experiment: Antibacterial activity against extensively drug resistant Mycobacterium tuberculosis X59 after 9 days by inverted microscopic analysis; conditions: X59, 216 h
[3] = system: Mycobacterium tuberculosis; experiment: Antibacterial activity against multidrug-resistant Mycobacterium tuberculosis M23 after 9 days by inverted microscopic analysis; conditions: M23, 216 h
[4] = system: Mycobacterium tuberculosis; experiment: Antibacterial activity against extensively drug resistant Mycobacterium tuberculosis X24 after 9 days by inverted microscopic analysis; conditions: X24, 216 h
[5] = system: Mycobacterium tuberculosis; experiment: Antibacterial activity against multidrug-resistant Mycobacterium tuberculosis P887 after 9 days by inverted microscopic analysis; conditions: P887, 216 h

SMILES	MIC [1] [µM]	MIC [2] [µM]	MIC [3] [µM]	MIC [4] [µM]	MIC [5] [µM]
Cc1ccn2nc(S(=O)(=O)Nc3c(Br)ccc4cccnc34)nc2n1	0.5 (≈ 0.21 µg/mL)	0.5 (≈ 0.21 µg/mL)	0.5 (≈ 0.21 µg/mL)	0.5 (≈ 0.21 µg/mL)	0.5 (≈ 0.21 µg/mL)
Cc1nc2nc(S(=O)(=O)Nc3c(Br)ccc4cccnc34)nn2c2c1CCC2	2 (≈ 0.919 µg/mL)	2 (≈ 0.919 µg/mL)	2 (≈ 0.919 µg/mL)	2 (≈ 0.919 µg/mL)	2 (≈ 0.919 µg/mL)
